We go through 19 molecules from ChEMBL document CHEMBL1134873, “Synthesis and antiparasitic activity of 1H-benzimidazole derivatives” (Bioorg Med Chem Lett, 2002).

The test system of test [1] is Entamoeba histolytica. As to the kind of experiment: The compound was tested in vitro against the protozoa Entamoeba histolytica, for the inhibition of tubulin polymerization in rat brain. The class given is functional.
Test [2] deals with Giardia intestinalis. Put plainly: The compound was tested in vitro against the protozoa Giardia lamblia, for the inhibition of tubulin polymerization in rat brain. The class given is functional. The note with it: Giardia duodenalis.
Test [3] deals with Trichinella spiralis. As to the kind of experiment: Percentage viability reduction of Trichinella spiralis muscle larvae after 3 days of incubation. It counts as functional. Further details: concentration or dose not given beside the values.
Test [4] concerns Trichinella spiralis. As to the kind of experiment: Percentage viability reduction of Trichinella spiralis muscle larvae after 3 days of incubation; No reduction observed. The class given is functional, organism-based.

The term IC50 denotes the concentration that inhibits the measured activity by half. With `Clc1ccc2[nH]cnc2c1`, the IC50 was 39 nM in test [1] and 282 nM in test [2]. Besides, the Viability in test [3] worked out at 27%.
For `Sc1nc2cc(Cl)ccc2[nH]1`, the IC50 in test [1] amounted to 5 nM; in test [2], 81 nM. The Viability in test [3] worked out at 13%.
As to `COC(=O)Nc1nc2cc(Cl)ccc2[nH]1`, the IC50 in test [1] was 350 nM; in test [2], 66 nM. The same molecule yielded a Viability in test [3] of 19%.
As to `CCCSc1ccc2[nH]c(NC(=O)OC)nc2c1` [ALBENDAZOLE], in test [3], the Viability turned out to be 34%.
With `CSc1nc2ccccc2[nH]1`, the IC50 came out at 393 nM in test [1] and 45 nM in test [2]. In addition, the Viability result in test [4] was “No reduction observed”.
For the molecule `CSc1nc2cc(Cl)ccc2[nH]1`, the concentration for half-maximal inhibition (IC50) in test [1] worked out at 192 nM; in test [2], 5 nM. The molecule further displayed a Viability in test [3] of 15%.
On the same counts, the results for `Clc1cc2nc[nH]c2cc1Cl` are 96 nM, 358 nM and 18%.
In the case of `Nc1nc2ccc(Cl)cc2[nH]1`, the IC50 turned out to be 125 nM in test [1] and 30 nM in test [2]. In test [3], the Viability is on record as 17%.
With `c1ccc2[nH]cnc2c1` [BENZIMIDAZOLE], the IC50 amounted to 42 nM in test [1] and 8 nM in test [2]. The Viability result in test [4] is “No reduction observed”.
As for `Nc1nc2ccccc2[nH]1`, the IC50 was determined as 114 nM in test [1] and 1900 nM in test [2]. This molecule also showed a Viability in test [3] of 9%.
Turning to `Sc1nc2cc(Cl)c(Cl)cc2[nH]1`, the IC50 in test [1] was determined as 55 nM; in test [2] it was 78 nM. In addition, in test [3], the Viability came to 23%.
For the molecule `Sc1nc2ccccc2[nH]1` [2-MERCAPTOBENZIMIDAZOLE], the IC50 came to 133 nM in test [1] and 40 nM in test [2]. The Viability in test [3] is on record as 11%.
On the same counts, the results for `CSc1nc2cc(Cl)c(Cl)cc2[nH]1` are 356 nM, 227 nM and 17%.
`Cc1nc2cc(Cl)c(Cl)cc2[nH]1`: the IC50 worked out at 25 nM in test [1] and 65 nM in test [2]. In test [3], this molecule had a Viability of 8%.
With `Nc1nc2cc(Cl)c(Cl)cc2[nH]1`, the figures for the IC50 in test [1] and in test [2] were 59 nM and 218 nM, respectively. In test [3], this molecule gave a Viability of 2%.
On the same counts, the results for `Cc1nc2cc(Cl)ccc2[nH]1` are 84 nM, 156 nM and 14%.
Take `COC(=O)Nc1nc2cc(Cl)c(Cl)cc2[nH]1`: the IC50 came out at 46 nM in test [1] and 127 nM in test [2]. In test [3], this molecule returned a Viability of 14%.
Take `Cc1nc2ccccc2[nH]1`: the IC50 in test [1] worked out at 7 nM; in test [2], 317 nM. In test [4], the Viability entry is “No reduction observed”.
Turning to `COC(=O)Nc1nc2ccccc2[nH]1` [CARBENDAZIM], the IC50 turned out to be 204 nM in test [1] and 57 nM in test [2]. Besides, in test [4], the Viability result is “No reduction observed”.
